According to ChEMBL document CHEMBL1201862, “PubChem BioAssay data set” (2004):
The source made the active and inactive calls.

Key:
[1] = HEK293T cell cytotoxicity, dose response, cytotoxicity control, CellTiter-Glo luminescence, cherry-picked samples, set 4 (AID 743441); type: functional, cell-based; settings: HEK293
[2] = microbe, parasite or virus in culture; type: functional; settings: Mycobacterium tuberculosis
[3] = insulin promoter down-regulators in MIN6 cells, imaging, high-content screening, mouse beta cells (AID 1628); type: functional
[4] = cytotoxicity in MIN6 insulinoma cells, dose response, cytotoxicity control, cell-based, mouse insulinoma (AID 2122); type: functional;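 further: confirmatory high-throughput counterscreen run to flag cytotoxic compounds; mouse MIN-6 beta cells carrying an insulin promoter eGFP reporter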
[5] = HEK293T cytotoxicity, dose response, cytotoxicity control for miR-122 modulator project, cell-based, inhibitor set, cherry-pick, set 2 (AID 720697); type: functional
[6] = Shn3 3'UTR reporter inhibitors, dose response, cell-based, Clone20 osteoblasts, firefly luciferase, cherry-picked (AID 624132); type: functional;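 further: firefly luciferase luminescence from reporter carrying the Shn3 3'UTR in osteoblasts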
[7] = HepG2 cell cytotoxicity, dose response, cytotoxicity control for Shn3 inhibitor project, CellTiter-Glo, cherry-picked (AID 624134); type: functional, cell-based
[8] = control 3'UTR Renilla luciferase suppression, dose response, counter-screen for Shn3 inhibitor project, cell-based, Clone20-Shn3RL, cherry-picked (AID 624133); type: functional
[9] = HepG2 cell cytotoxicity, dose response, cytotoxicity control, CellTiter-Glo luminescence, cherry-pick, set 2 (AID 743395); type: functional
[10] = reduction of Shn3 3'UTR firefly luciferase signal, dose response, Schnurri-3 inhibitor project, cell-based, Clone20 osteoblasts, cherry-pick, set 2 (AID 720490); type: functional;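 further: actives lower the luminescence signal as inhibitors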
[11] = biological target: T1, Aminopeptidase N (Plasmodium falciparum FcB1/Columbia, UniProt O96935); assay: P. falciparum M1AAP inhibitors, biochemical, fluorogenic H-Leu-NHMec substrate, 1536-well (AID 1445); parameters: species or system Plasmodium falciparum 3D7, 3D7
T1 sequence (O96935 whole entry): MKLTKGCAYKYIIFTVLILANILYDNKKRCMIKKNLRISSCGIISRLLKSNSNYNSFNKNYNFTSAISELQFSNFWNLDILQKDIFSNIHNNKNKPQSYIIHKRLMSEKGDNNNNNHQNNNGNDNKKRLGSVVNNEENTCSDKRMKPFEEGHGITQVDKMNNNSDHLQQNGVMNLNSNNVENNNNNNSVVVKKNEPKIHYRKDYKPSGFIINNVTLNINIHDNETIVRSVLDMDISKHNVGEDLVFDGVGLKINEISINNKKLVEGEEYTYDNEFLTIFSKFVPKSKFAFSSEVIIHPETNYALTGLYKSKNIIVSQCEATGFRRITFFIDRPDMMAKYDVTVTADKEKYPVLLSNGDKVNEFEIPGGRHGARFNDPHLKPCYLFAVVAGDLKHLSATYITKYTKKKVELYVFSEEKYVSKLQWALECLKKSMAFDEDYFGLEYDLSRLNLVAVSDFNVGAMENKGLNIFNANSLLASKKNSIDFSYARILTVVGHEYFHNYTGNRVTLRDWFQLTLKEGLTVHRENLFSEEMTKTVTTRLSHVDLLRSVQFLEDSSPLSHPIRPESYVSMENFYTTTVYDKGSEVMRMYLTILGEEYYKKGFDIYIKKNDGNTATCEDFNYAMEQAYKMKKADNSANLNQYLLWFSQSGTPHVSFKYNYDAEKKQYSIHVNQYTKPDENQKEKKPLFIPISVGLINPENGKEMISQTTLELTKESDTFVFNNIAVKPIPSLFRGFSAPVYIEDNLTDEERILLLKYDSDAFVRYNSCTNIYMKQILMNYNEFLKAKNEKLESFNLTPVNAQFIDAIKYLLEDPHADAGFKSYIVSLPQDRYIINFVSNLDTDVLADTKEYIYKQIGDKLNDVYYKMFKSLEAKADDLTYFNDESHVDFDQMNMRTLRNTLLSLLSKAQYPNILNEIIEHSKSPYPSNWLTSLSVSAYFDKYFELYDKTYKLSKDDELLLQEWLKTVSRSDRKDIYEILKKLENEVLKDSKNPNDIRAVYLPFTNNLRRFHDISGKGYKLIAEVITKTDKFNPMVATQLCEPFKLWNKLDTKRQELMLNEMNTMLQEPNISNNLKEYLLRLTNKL

[12] = biological target: Endoplasmic reticulum aminopeptidase 1 (Homo sapiens, UniProt Q9NZ08); assay: ERAP1 aminopeptidase inhibitors, dose response, biochemical, cherry-pick, set 2, plate reader (AID 743314)
Chain of Endoplasmic reticulum aminopeptidase 1 (Q9NZ08 whole entry): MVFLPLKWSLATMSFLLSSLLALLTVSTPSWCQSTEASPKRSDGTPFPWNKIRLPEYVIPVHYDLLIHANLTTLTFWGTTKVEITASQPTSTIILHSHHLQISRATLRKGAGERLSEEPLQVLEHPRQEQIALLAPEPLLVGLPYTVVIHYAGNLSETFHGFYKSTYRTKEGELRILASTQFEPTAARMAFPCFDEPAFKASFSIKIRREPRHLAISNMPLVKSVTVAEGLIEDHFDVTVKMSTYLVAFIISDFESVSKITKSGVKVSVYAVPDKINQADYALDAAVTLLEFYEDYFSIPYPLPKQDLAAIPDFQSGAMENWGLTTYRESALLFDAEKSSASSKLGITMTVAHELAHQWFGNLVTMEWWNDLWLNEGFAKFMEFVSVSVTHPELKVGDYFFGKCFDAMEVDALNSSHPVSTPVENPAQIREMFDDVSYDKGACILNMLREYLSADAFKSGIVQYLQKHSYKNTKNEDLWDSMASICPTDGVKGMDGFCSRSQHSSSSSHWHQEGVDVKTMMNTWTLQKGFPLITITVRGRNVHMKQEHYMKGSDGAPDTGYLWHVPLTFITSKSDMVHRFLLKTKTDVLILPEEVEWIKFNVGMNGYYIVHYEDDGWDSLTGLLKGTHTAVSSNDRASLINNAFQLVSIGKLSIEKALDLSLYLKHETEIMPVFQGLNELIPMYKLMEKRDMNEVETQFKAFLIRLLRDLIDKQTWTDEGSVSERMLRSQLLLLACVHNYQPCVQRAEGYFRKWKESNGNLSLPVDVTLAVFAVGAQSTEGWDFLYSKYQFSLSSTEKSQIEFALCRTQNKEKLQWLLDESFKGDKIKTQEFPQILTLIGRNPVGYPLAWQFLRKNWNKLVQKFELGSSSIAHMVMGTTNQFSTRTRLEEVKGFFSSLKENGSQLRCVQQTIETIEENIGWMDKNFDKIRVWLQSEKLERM

[13] = biological target: Metabotropic glutamate receptor 5 (Rattus norvegicus, UniProt P31424); assay: Identification of a glycine sulfonamide based non-MPEP site positive allosteric potentiator (PAM) of mGlu5 (calcium_assay).; type: functional
Chain of Metabotropic glutamate receptor 5 (P31424 whole entry): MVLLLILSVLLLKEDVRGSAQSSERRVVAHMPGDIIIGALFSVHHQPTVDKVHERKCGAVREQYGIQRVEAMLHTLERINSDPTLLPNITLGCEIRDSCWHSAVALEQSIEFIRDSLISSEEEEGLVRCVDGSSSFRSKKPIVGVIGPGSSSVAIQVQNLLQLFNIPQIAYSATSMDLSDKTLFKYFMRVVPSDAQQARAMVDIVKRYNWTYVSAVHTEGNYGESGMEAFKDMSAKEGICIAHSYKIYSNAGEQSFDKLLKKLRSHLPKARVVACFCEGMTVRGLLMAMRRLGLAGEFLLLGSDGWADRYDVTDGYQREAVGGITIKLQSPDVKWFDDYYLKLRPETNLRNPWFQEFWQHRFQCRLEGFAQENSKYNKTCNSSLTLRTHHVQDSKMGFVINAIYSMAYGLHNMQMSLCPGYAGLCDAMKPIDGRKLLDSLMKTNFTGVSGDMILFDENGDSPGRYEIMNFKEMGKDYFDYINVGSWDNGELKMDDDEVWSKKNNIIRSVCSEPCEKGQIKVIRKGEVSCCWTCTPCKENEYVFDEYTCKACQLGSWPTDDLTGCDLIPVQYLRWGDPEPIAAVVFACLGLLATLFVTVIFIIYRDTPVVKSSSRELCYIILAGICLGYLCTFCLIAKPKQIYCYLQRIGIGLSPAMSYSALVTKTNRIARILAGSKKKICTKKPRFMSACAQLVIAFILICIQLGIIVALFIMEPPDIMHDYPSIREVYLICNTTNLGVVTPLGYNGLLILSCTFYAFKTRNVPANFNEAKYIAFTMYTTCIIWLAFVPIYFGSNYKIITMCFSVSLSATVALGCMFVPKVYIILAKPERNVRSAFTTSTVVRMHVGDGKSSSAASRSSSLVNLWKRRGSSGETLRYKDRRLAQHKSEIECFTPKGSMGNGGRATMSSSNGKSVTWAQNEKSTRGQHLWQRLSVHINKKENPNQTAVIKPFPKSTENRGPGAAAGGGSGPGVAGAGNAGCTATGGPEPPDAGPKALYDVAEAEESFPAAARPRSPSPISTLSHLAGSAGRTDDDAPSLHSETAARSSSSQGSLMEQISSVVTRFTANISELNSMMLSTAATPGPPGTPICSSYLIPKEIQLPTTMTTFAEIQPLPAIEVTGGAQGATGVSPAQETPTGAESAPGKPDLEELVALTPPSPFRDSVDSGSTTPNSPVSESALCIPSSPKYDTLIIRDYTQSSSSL

| SMILES | IC50 [3] | IC50 [4] | AC50 [6] | AC50 [7] | AC50 [8] | other results |
| --- | --- | --- | --- | --- | --- | --- |
| Cc1c(C(=O)O)sc2nc(CSc3ncc(C(F)(F)F)cc3Cl)nc(O)c12 |  |  |  |  |  | AC50 [1]: > 52 µM (inactive) |
| COc1ccc(-c2oc3ncnc(NCCCN4CCOCC4)c3c2-c2ccc(OC)cc2)cc1 | 0.898 µM (active) | > 16 µM (inactive) |  |  |  | CC50 [2]: 24.8 µM (active); AC50 [5]: 1.51 µM (active) |
| CCOC(=O)c1oc2ccc(S(=O)(=O)n3nc(-c4ccccc4)cc3N)cc2c1C | 1.08 µM (active) | 1.01 µM (active) | 0.854 µM (active) | 56.8 µM (active) | 7.82 µM (active) | AbsAC35_uM [9]: 31.08 µM |
| CCOC(=O)N1CCN(c2ccc(S(=O)(=O)N(Cc3ccccc3)Cc3ccccc3)cn2)CC1 |  |  | 2.59 µM (active) | 45 µM (active) | 34.3 µM (active) | AC50 [10]: 2.09 µM (active) |
| CCc1c(C)c2cc(Cl)c(O)c(CN(CC)CC)c2oc1=O |  |  |  |  |  | IC50 [11]: 34.6 µM (active); AC50 [12]: 6.85 µM (active) |
| CS(=O)(=O)N1c2ccccc2CCC1C(=O)Nc1ccccn1 (stereo not drawn) |  |  |  |  |  | EC50 [13]: 0.944 µM |
